These molecules were tested on HIV-1 fusion (assay: gp160 induced cell-cell fusion assay (HeLa P4 / CHO-Tat10 cells, β-galactosidase reporter)). Settings: Human immunodeficiency virus 1, HeLaP4, read-out: IC50 against HIV-1 fusion.
Type: cell-based
Experimental: The gp160 induced cell-cell fusion assay uses a HeLa P4 cell line and a CHO-Tat10 cell line.
The HeLa P4 cell line expresses CCR5 and CD4 and has been transfected with HIV-1 LTR-β-Galactosidase. The media for this cell line is Dulbecco modified eagle's medium (D-MEM) (without L-glutamine) containing 10% foetal calf serum (FCS), 2 mM L-glutamine penicillin/streptomycin (Pen/Strep; 100 U/mL penicillin+[…] streptomycin), and 1 μg/ml puromycin.
The CHO cell line is a Tat (transcriptional trans activator)-expressing clone from a CHO JRR17.1 cell line that has been transfected with pTat puro plasmid. The media for this cell line is rich medium for mammalian cell culture originally developed at Roswell Park Memorial Institute RPMI1640 (without L-glutamine) containing 10% FCS, 2 mM L-glutamine, 0.5 mg/ml Hygromycin B and 12 μg/ml puromycin. The CHO JRR17.1 line expresses gp160 (JRFL) and is a clone that has been selected for its ability to fuse with a CCR5/CD4 expressing cell line.
Upon cell fusion, Tat present in the CHO cell is able to transactivate the HIV-1 long terminal repeat (LTR) present in the HeLa cell leading to the expression of the β-Galactosidase enzyme. This expression is then measured using a Fluor Ace™ β-Galactosidase reporter assay kit (Bio-Rad cat no. 170-3150). This kit is a quantitative fluorescent assay that determines the level of expression of β-galactosidase using 4-methylumbelliferul-galactopyranoside (MUG) as substrate. β-Galactosidase hydrolyses the fluorogenic substrate resulting in release of the fluorescent molecule 4-methylumbelliferone (4MU). Fluorescence of 4-methylumbelliferone is then measured on a fluorometer using an excitation wavelength of 360 nm and emission wavelength of 460 nm.
Compounds that inhibit fusion will give rise to a reduced signal and, following solubilisation in an appropriate solvent and dilution in culture medium, a dose-response curve for each compound can be used to calculate IC50 values.
`Cc1n[nH]c2cccc(O[C@@H](C)C(=O)N3CCN(C(=O)c4ccccc4)C[C@H]3C)c12` [Example 12] gave an IC50 of 15 nM.
`CC(Oc1cccc2ccccc12)C(=O)N1CCN(C(=O)c2ccccc2)C[C@H]1C` (stereo partly drawn) [Example 29] showed an IC50 of 134 nM.
With `CC(Oc1ccccc1C(N)=O)C(=O)N1CCN(C(=O)c2ccccc2)C[C@H]1C` (stereo partly drawn) [Example 44] the IC50 was 825 nM.

What follows are molecules tested against interaction of gp120 with CD4 (Human immunodeficiency virus type 1 group M subtype B, UniProt P04578) (assay: gp120/soluble CD4 enzyme linked immunosorbent assay (ELISA)). Settings: soluble CD4 conjugated to horseradish peroxidase, absorbance at 492 nm, read-out: IC50, inhibition of interaction of gp120 with soluble CD4.
Type: binding
Experimental: Maxisorp plates (Nunc) are coated with 2 μg/well of anti-gp120 antibody (D7324). 100 μl of gp120 (dilution pre-determined by titration) is added to each well and incubated for 90 minutes at room temperature. The sample is removed and the wells are washed with PBS (phosphate buffered saline)+0.01% TWEEN® (polyethylene glycol sorbitan monolaurate). 50 μl/well of compound is added followed by 50 μl (0.1 μg) of soluble CD4 conjugated to horseradish peroxidase (Autogen Bioclear). The plate is incubated for 90 minutes at room temperature before the wells are washed again. The substrate OPD (o-phenylenediamine, Sigma) is added at a concentration of 0.5 mg/ml and the plate incubated in the dark at room temperature for 3 minutes before 3M HCl is added to stop the reaction. Compounds that inhibit the interaction of gp120 with soluble CD4 will give rise to a reduced absorbance at 492 nm.
`C[C@H](Oc1cccc2ncccc12)C(=O)N1CCN(C(=O)c2ccccc2)C[C@H]1C` [Example 1, (2S)-1-[(2R)-4-Benzoyl-2-methyl-piperazin-1-yl]-2-(quinolin-5-yloxy)-prooan-1-one] gave an IC50 of 920 nM.
For `CNC(=O)c1ccc(O[C@@H](C)C(=O)N2CCN(C(=O)c3ccccc3)C[C@H]2C)c(OC)c1` [Example 11], the IC50 was 1000 nM.
Molecule `Cc1n[nH]c2cccc(O[C@@H](C)C(=O)N3CCN(C(=O)c4ccccc4)C[C@H]3C)c12` [Example 12] has an IC50 of 750 nM.

From patent US20050043300A1, “Piperazine derivatives” (priority 2003, published 2005)
